# Reference: patent US11767341B2, “Lincosamide antibiotics and uses thereof” (President and Fellows of Harvard College, priority 2017, dated 2023)
# Read-outs that look alike come from different tables or passages of the source.
# Key:
# Assay in all cases: MIC determination
# Assay type in all cases: cell-based
# S. aureus ATCC 29213 = tested on: S. aureus ATCC 29213
# S. aureus BAA 977 iErmA = settings: Staphylococcus aureus, BAA977
# [1] = tested on: S. aureus MP-549 msr(a) USA 300; settings: Staphylococcus aureus, USA300, S. aureus MP-549 msr(a) USA 300
# S. aureus MMX 3035 cErmA = settings: Staphylococcus aureus, MMX3035CERMA; S. aureus MMX 3035 cErmA; read-out: MIC
# S. pneumoniae ATCC 49619 = settings: Streptococcus pneumoniae, ATCC49619
# [2] = tested on: S. pneumoniae MMX 3028 cErmB; settings: Streptococcus pneumoniae, MMX3028CERMB
# [3] = tested on: S. pneumoniae MMX 3031 cMefA; settings: Streptococcus pneumoniae, MMX3031CMEFA
# S. pyogenes ATCC 19615 = settings: S. pyogenes ATCC 19615
# [4] = tested on: S. pyogenes MMX 946 Macrolide-Resistant; settings: Streptococcus pyogenes
# E. faecalis ATCC 29212 = settings: Enterococcus faecalis
# [5] = tested on: E. faecalis MMX 847 Macrolide-Resistant; settings: Enterococcus faecalis, read-out: MIC
# K. pneumoniae ATCC 10031 = settings: Klebsiella pneumoniae, ATCC10031
# E. coli ATCC 25922 = settings: Escherichia coli
# E. coli MP-9 ΔTolC = tested on: E. coli MP-9 ΔTolC
# [6] = tested on: E. coli MP-74 LptD mutant
# H. influenzae ATCC 49247 = tested on: H. influenzae ATCC 49247
# [7] = Staphylococcus aureus, ATCC29213, S. aureus ATCC 29213, read-out: MIC
# [8] = S. pneumoniae ATCC 49619, read-out: MIC
# [9] = Streptococcus pyogenes, ATCC19615, read-out: MIC
# [10] = S. pyogenes MMX 946 Macrolide-Resistant (MacRes), read-out: MIC
# [11] = E. faecalis MMX 847 Macrolide-Resistant (MacRes)
# [12] = ATCC25922, E. coli ATCC 25922, read-out: MIC
# [13] = Haemophilus influenzae, ATCC49247, H. influenzae ATCC 49247, read-out: MIC
# [14] = S. pneumoniae MMX 3028 cErmB, read-out: MIC
# [15] = S. pyogenes MMX 946 MacRes, read-out: MIC
# [16] = K. pneumoniae ATCC 10031, read-out: MIC
# [17] = Haemophilus influenzae, ATCC49247
SMILES,MIC (S. aureus ATCC 29213; [7]),MIC (S. aureus BAA 977 iErmA),MIC [1],MIC (S. aureus MMX 3035 cErmA),MIC (S. pneumoniae ATCC 49619; [8]),MIC [3],MIC (S. pyogenes ATCC 19615; [9]),"MIC (E. faecalis ATCC 29212; ATCC29212, read-out: MIC)",MIC (E. coli ATCC 25922; [12]),MIC (E. coli MP-9 ΔTolC; Escherichia coli),MIC ([6]; Escherichia coli),MIC (H. influenzae ATCC 49247; [13]),"MIC [2, 14]","MIC [4, 15]",MIC ([5]; E. faecalis MMX 847 MacRes),MIC (K. pneumoniae ATCC 10031; [16]),MIC (H. influenzae ATCC 49247; [17]),other results
CSC1O[C@H]([C@H](NC(=O)[C@H]2NC[C@@H]3C=C(c4ccc(F)cc4F)CCO[C@@H]23)[C@H](C)Cl)C(O)[C@@H](O)[C@H]1O (stereo partly shown) [FSA-511072],1 µg/mL,1 µg/mL,1 µg/mL,> 64 µg/mL,0.12 µg/mL,0.12 µg/mL,0.25 µg/mL,4 µg/mL,> 64 µg/mL,32 µg/mL,64 µg/mL,> 64 µg/mL,–,–,–,–,–,"MIC [2]: 64 µg/mL; MIC [4, 10]: > 64 µg/mL; MIC [5, 11]: > 64 µg/mL; MIC (K. pneumoniae ATCC 10031): 32 µg/mL"
CSC1O[C@H]([C@H](NC(=O)[C@H]2NC[C@@H]3C[C@@H](CCc4ccccc4)CCO[C@H]32)[C@H](C)Cl)C(O)[C@@H](O)[C@H]1O (stereo partly shown) [FSA-510021],0.125 µg/mL,0.125 µg/mL,0.125 µg/mL,4 µg/mL,≤ 0.06 µg/mL,≤ 0.06 µg/mL,≤ 0.06 µg/mL,0.25 µg/mL,64 µg/mL,4 µg/mL,4 µg/mL,1 µg/mL,4 µg/mL,1 µg/mL,4 µg/mL,4 µg/mL,–,–
CSC1O[C@H]([C@H](NC(=O)[C@H]2NC[C@@H]3C[C@@H](c4cccc(F)c4)CCO[C@H]32)[C@H](C)Cl)C(O)[C@@H](O)[C@H]1O (stereo partly shown) [FSA-511077],0.25 µg/mL,0.25 µg/mL,0.25 µg/mL,> 64 µg/mL,≤ 0.06 µg/mL,≤ 0.06 µg/mL,≤ 0.06 µg/mL,0.5 µg/mL,> 64 µg/mL,4 µg/mL,16 µg/mL,–,8 µg/mL,32 µg/mL,64 µg/mL,8 µg/mL,16 µg/mL,–
CSC1O[C@H]([C@H](NC(=O)[C@H]2NC[C@@H]3C[C@@H](c4ccc(C#N)cc4)CCO[C@H]32)[C@H](C)Cl)C(O)[C@@H](O)[C@H]1O (stereo partly shown) [FSA-512081a],–,1 µg/mL,–,128 µg/mL,–,< 0.06 µg/mL,–,–,–,–,–,–,4 µg/mL,–,64 µg/mL,–,–,MIC (S. aureus ATCC 29213; S. aureus ATCC 29213): 0.25 µg/mL; MIC (S. pyogenes ATCC 19615): ≤0.06 µg/mL; MIC [4]: 16 µg/mL; MIC (E. faecalis ATCC 29212; ATCC29212): 0.5 µg/mL; MIC (E. coli MP-9 ΔTolC): 4 µg/mL; MIC [6]: 16 µg/mL; MIC (H. influenzae ATCC 49247; H. influenzae ATCC 49247): 16 µg/mL
CSC1O[C@H]([C@H](NC(=O)[C@H]2NC[C@@H]3C[C@@H](CCc4cccc(F)c4)CCO[C@H]32)[C@H](C)Cl)C(O)[C@@H](O)[C@H]1O (stereo partly shown) [FSA-510022],0.12 µg/mL,0.12 µg/mL,0.12 µg/mL,2 µg/mL,≤ 0.06 µg/mL,≤ 0.06 µg/mL,≤ 0.06 µg/mL,0.25 µg/mL,32 µg/mL,4 µg/mL,4 µg/mL,1 µg/mL,4 µg/mL,0.5 µg/mL,2 µg/mL,2 µg/mL,–,–
CSC1O[C@H]([C@H](NC(=O)[C@H]2NC[C@@H]3C[C@H](c4ccc(C#N)cc4)CCO[C@H]32)[C@H](C)Cl)C(O)[C@@H](O)[C@H]1O (stereo partly shown) [FSA-512081b],0.25 µg/mL,1 µg/mL,1 µg/mL,128 µg/mL,≤ 0.06 µg/mL,0.12 µg/mL,≤ 0.06 µg/mL,1 µg/mL,128 µg/mL,8 µg/mL,32 µg/mL,–,–,–,128 µg/mL,–,16 µg/mL,MIC [2]: 16 µg/mL; MIC [4]: 32 µg/mL
CSC1O[C@H]([C@H](NC(=O)[C@H]2NC[C@@H]3C[C@@H](c4ccc(F)cc4F)CCO[C@H]32)[C@H](C)Cl)C(O)[C@@H](O)[C@H]1O (stereo partly shown) [FSA-511078],0.25 µg/mL,0.25 µg/mL,0.12 µg/mL,> 64 µg/mL,≤ 0.06 µg/mL,≤ 0.06 µg/mL,≤ 0.06 µg/mL,0.25 µg/mL,> 64 µg/mL,2 µg/mL,8 µg/mL,16 µg/mL,4 µg/mL,16 µg/mL,64 µg/mL,8 µg/mL,–,–
CSC1O[C@H]([C@H](NC(=O)[C@H]2NC[C@@H]3C[C@@H](c4ccc(C(F)(F)F)cc4)CCO[C@H]32)[C@H](C)Cl)C(O)[C@@H](O)[C@H]1O (stereo partly shown) [FSA-509019],≤ 0.06 µg/mL,0.25 µg/mL,–,64 µg/mL,≤ 0.06 µg/mL,0.125 µg/mL,≤ 0.06 µg/mL,1 µg/mL,–,16 µg/mL,32 µg/mL,–,–,–,–,–,–,"MIC [2]: 16 µg/mL; MIC [4]: 32 µg/mL; MIC [5, 11]: 64 µg/mL; MIC (K. pneumoniae ATCC 10031): 16 µg/mL"
CSC1O[C@H]([C@H](NC(=O)[C@H]2NC[C@@H]3C=C(c4ccccc4F)CCO[C@@H]23)[C@H](C)Cl)C(O)[C@@H](O)[C@H]1O (stereo partly shown) [FSA-511073],1 µg/mL,1 µg/mL,1 µg/mL,> 64 µg/mL,0.12 µg/mL,0.12 µg/mL,0.25 µg/mL,4 µg/mL,> 64 µg/mL,64 µg/mL,64 µg/mL,> 64 µg/mL,–,–,–,–,–,"MIC [2]: 64 µg/mL; MIC [4, 10]: > 64 µg/mL; MIC [5, 11]: > 64 µg/mL; MIC (K. pneumoniae ATCC 10031): 64 µg/mL"
COc1ccc([C@@H]2CCO[C@@H]3[C@H](CN[C@@H]3C(=O)N[C@H]([C@H](C)Cl)[C@H]3OC(SC)[C@H](O)[C@H](O)C3O)C2)cc1 (stereo partly shown) [FSA-512080c],0.25 µg/mL,0.5 µg/mL,0.5 µg/mL,128 µg/mL,≤ 0.06 µg/mL,0.12 µg/mL,≤ 0.06 µg/mL,2 µg/mL,> 128 µg/mL,8 µg/mL,32 µg/mL,–,16 µg/mL,64 µg/mL,128 µg/mL,–,32 µg/mL,–
COc1ccc([C@H]2CCO[C@@H]3[C@H](CN[C@@H]3C(=O)N[C@H]([C@H](C)Cl)[C@H]3OC(SC)[C@H](O)[C@H](O)C3O)C2)cc1 (stereo partly shown) [FSA-512080b],0.12 µg/mL,0.25 µg/mL,0.5 µg/mL,64 µg/mL,≤ 0.06 µg/mL,≤ 0.06 µg/mL,≤ 0.06 µg/mL,–,128 µg/mL,4 µg/mL,8 µg/mL,16 µg/mL,4 µg/mL,16 µg/mL,64 µg/mL,–,–,MIC (E. faecalis ATCC 29212; ATCC29212): 0.5 µg/mL
CSC1O[C@H]([C@H](NC(=O)[C@H]2NC[C@@H]3CC=CCO[C@H]32)[C@H](C)Sc2ccc(-c3cccnc3)cc2)C(O)[C@@H](O)[C@H]1O (stereo partly shown) [FSA-213061],0.25 µg/mL,0.25 µg/mL,0.5 µg/mL,64 µg/mL,≤ 0.06 µg/mL,0.125 µg/mL,≤ 0.06 µg/mL,16 µg/mL,> 64 µg/mL,8 µg/mL,8 µg/mL,–,8 µg/mL,–,–,32 µg/mL,–,"MIC [4, 10]: 4 µg/mL; MIC [5, 11]: > 64 µg/mL"
COc1ccc(C2CCO[C@@H]3[C@H](CN[C@@H]3C(=O)N[C@H]([C@H](C)Cl)[C@H]3OC(SC)[C@H](O)C(O)C3O)C2)cc1 (stereo partly shown) [FSA-511045],–,–,0.25 µg/mL,–,≤ 0.06 µg/mL,–,≤ 0.06 µg/mL,1 µg/mL,> 64 µg/mL,8 µg/mL,32 µg/mL,16 µg/mL,–,–,–,16 µg/mL,–,"MIC (S. aureus ATCC 29213; Staphylococcus aureus, ATCC29213): 0.5 µg/mL"
CSC1O[C@H]([C@H](NC(=O)[C@H]2NC[C@@H]3CC(c4ccc(C)cc4)CCO[C@H]32)[C@H](C)Cl)C(O)[C@@H](O)[C@H]1O (stereo partly shown) [FSA-511044],0.25 µg/mL,–,0.5 µg/mL,–,–,–,≤ 0.06 µg/mL,2 µg/mL,> 64 µg/mL,16 µg/mL,16 µg/mL,–,–,–,–,32 µg/mL,16 µg/mL,MIC (S. pneumoniae ATCC 49619): 0.5 µg/mL
CSC1O[C@H]([C@H](NC(=O)[C@H]2NC[C@@H]3CC(NCc4ccccc4F)CCO[C@H]32)[C@H](C)Cl)C(O)C(O)[C@H]1O (stereo partly shown) [FSA-510072],64 µg/mL,–,64 µg/mL,–,30 µg/mL,–,8 µg/mL,–,–,> 64 µg/mL,> 64 µg/mL,–,–,–,–,–,> 64 µg/mL,MIC (E. faecalis ATCC 29212; ATCC29212): > 64 µg/mL; MIC (K. pneumoniae ATCC 10031): > 64 µg/mL; MIC (E. coli ATCC 25922; ATCC25922): > 64 µg/mL
